According to publication PMC13242511, “Disrupting Notch signalling by a small molecule inhibiting dihydroorotate dehydrogenase activity” (Scientific Reports, 2026):
Read-outs that look alike come from different tables or passages of the source.

Tests used:
[1] = target: γ-secretase complex (Homo sapiens, UniProt P49768); assay: APP-C99 counter assay (GSI reporter assay); format: cell-based; parameters: AUC APP: scale not given here; details: for Hill-slope / curve fit information: 14p APP assay DR; for AUC APP: area under the 14-point dose-response curve, replicates averaged; for remaining activity at 10 µM / remaining activity at 25 µM / remaining activity at […]: 24 h, APP-C99 counter assay, read-out: 3p-DR in % of DMSO counter; for remaining activity at […]: 1,25µM
Experimental: To this end, we used a previously established reporter gene-based GSI assay (APP-C99) (Fig. 3A), which measures γ-secretase activity through cleavage of amyloid precursor protein (APP), another protein processed by the γ-secretase complex[24]
Plasmids for APP and luciferase are described in[24] and the renilla plasmid described above generated for this project was used to normalize firefly values. 24 h post transfection cells were seeded on compound plates and cells were cultivated for 24 h before luciferase signals were read, as described.
Two-fold concentrations of compounds were diluted in 10 µl cell culture medium and brought to one-fold by seeding 10 µl containing 4000 cells of the respective cell type on each well of a 384-well plate, as described above. Analogous to the previous assays, all plates contained one DMSO and DAPT control column with the Notch reporter cell line (#A1-11) and a DMSO only and Notch inhibitor control plate was read before the measuring the screening plates. In addition, DAPT and DMSO were spotted in a dose response fashion, and a minimum of four replicates were read. Dose-responses of compounds were recorded in triplicates for each concentration reading out the dual luciferase reporters, as described above. Dose response assays were read together in one session. To measure compound effects, the different assays dose–response curves were fitted using the log(inhibitor) vs. response – Variable slope (model: Y = Bottom + (Top–Bottom)/(1 + 10^((LogIC50-X)*HillSlope)) equation.
A DMSO plate was read before measuring luciferase activity of compound spotted plates. APP firefly luciferase reporter assays were read with a signal integration time of 0.1 s, instead of 0.5 s used for the Notch reporter to reduce signal overlap between wells. […] The area-under-the-curve (AUC) was calculated on dose–response curves using Graphpad Prism.

[2] = system: Notch signalling; assay: Notch reporter assay (12xCSL firefly luciferase / renilla luciferase, HEK293T Notch1ΔE reporter cell line clone #A1-11); format: cell-based; parameters: AUC Notch: scale not given here; details: for Bottom (Emax): Emax indicated independent from assay constraints, in % (unit assumed); for AUC Notch: area under the 14-point dose-response curve, replicates averaged; for IC50 / activity at 10 µM / activity at 25 µM / activity: Homo sapiens, HEK-293T; for activity: 1,25µM
Source text: To identify novel Notch inhibitors in an unbiased manner, we generated a novel Notch reporter construct, which records the level of Notch signalling immediately downstream of receptor activation rather than further downstream in the signalling cascade, for example at the level of Hes and Hey proteins (Fig. 1B). […] The reporter construct carries piggy-bac sequences at both ends of the promoter-reporter cassette as well as cSH4 insulator elements to reduce transcriptional noise[21] and was transfected into HEK293T cells. To achieve a robust level of Notch receptor activity in the HEK293T reporter cell line and to confine the search for inhibitors to compounds affecting the receptor function and eliminating the need for ligand activation, a truncated ligand-independent version of the Notch1 receptor, mimicking an S2-cleaved Notch1 receptor (Notch1ΔE) and spontaneously activated by S3-cleavage[22] (Fig. 1C) was introduced into the cell line carrying the reporter construct (Fig. 1D). In addition, an HSV-TK-renilla luciferase plasmid was introduced into the cell line as an internal control for normalisation of the reporter expression (Fig. 1D).
A de novo Notch reporter construct, composed of six dimeric CSL binding sites linked to a basic b-globin promoter and followed by a firefly luciferase gene and a PEST degradation domain was synthesised (GeneArt). The construct was stably introduced into HEK293T cells, and zeocin (0.1 mg/ml) or Puromycin (0.05 mg/ml (ThermoFisher, cat #R25001, #A1113803) were used as selection markers. A clonal cell line (clone #A1) with robust renilla expression and enhanced firefly luciferase expression upon transient transfection of Notch1 ICD or Notch1ΔE constructs was selected, and a UB6 promoter-Notch1DE construct was stably introduced into this cell line using Blasticidin (0.1 mg/ml; ThermoFisher, cat #A1113903) as a selection marker. Stable cell lines were generated by serial dilution and only clonal colonies were selected for further evaluation. To measure luciferase reporter activity, cells were washed in cold PBS, detached, and collected in pre-warmed cell culture medium and centrifugated for five min at 200xg. The cell pellet was resuspended in medium, cells were counted, and 4,000 cells were seeded in each well of a white 384 well plate (Corning #3670) in 20 µl medium containing either DMSO or the GSI DAPT (N-[N-(3,5-Difluorophenacetyl)-L-alanyl]-S-phenylglycine t-butyl ester, Sigma-Aldrich, cat #565784-M) and incubated for 24 h. The efficacy of the reporter gene system was determined by monitoring the level of luciferase activation in the absence or presence of different amounts of DAPT in several cell clones. Luciferase activity was assessed using the dual-GLO luciferase detection kit from Promega (cat # E2920), following the manufacturer’s instructions. A minimum of two technical replicates were measured per clone using a SpectraMaxi3 plate reader (Molecular Devices). Reporter activity of different clones and in response to DAPT was assessed by normalising firefly (Notch activity) to renilla luciferase signals. Normalised signals of individual clones cultivated in DMSO were then compared to corresponding signals generated with DAPT-treated cells. The cell clone with the strongest signal to control ratio (DMSO to DAPT) was then selected for further exploration (clone #A1-11).
37,966 compounds were spotted by the compound center at SciLifeLab (https://www.scilifelab.se/) on a total of 120 plates (Greiner #781080) at a fixed concentration of 10 µM and the screening process spanned five consecutive sessions. The layout of each plate contained one column for DMSO and one for DAPT controls to determine the quality and reliability of the data. DAPT controls were spotted at 10 µM and DMSO was spotted in an equimolar volume. In addition, plates spotted with only DMSO were utilized to investigate the impact of plate effects before and after each session. […]

[3] = bottom constrained to Emax of positive control LY-411575
[4] = 14p Notch assay DR, bottom constrained to Emax of positive control DAPT, read-out: approximated IC50
[5] = 14p Notch assay DR, log10 value, bottom constrained to Emax of positive control DAPT, read-out: approximated LogIC50 (converted)
[6] = 10 µM, primary screen, 24 h, unit from Fig. 2 legend, read-out: Primary screen at 10 µM (Notch reporter signal)
[7] = 10 µM, three-dose confirmation screen, unit from Fig. 2 legend, read-out: Hit confirmation at 10 µM (Notch reporter signal)
[8] = 10µM, 3-point DR confirmation screen, Notch reporter assay, read-out: inhibitor ratio in % of DMSO in 3 point DR
[9] = 10 µM, sheet conf vs counter 10 µM, same values as 3-point DR confirmation screen, read-out: Confirmation screen
[10] = 25µM, 3-point DR confirmation screen, Notch reporter assay, read-out: inhibitor ratio in % of DMSO in 3 point DR
[11] = 25 µM, Notch reporter 3-point dose-confirmation assay, sheet "conf vs counter 25 µM", read-out: Confirmation screen
[12] = 3-point DR confirmation screen, Notch reporter assay, read-out: inhibitor ratio in % of DMSO in 3 point DR

Compound | Hill-slope [1, 3] | AUC APP [1] | curve fit information [1, 3] | IC50 [2, 4] [µM] | IC50 [2, 5] [µM] | Bottom (Emax) ([2]; 14p Notch assay DR) | AUC Notch [2] | also measured
COc1cc(Nc2nc(-c3cccc(Cl)c3)cn3ccnc23)cc(OC)c1OC [CBK066271] | -16.9 | 485.9 | – | – | – | 87.7 | 348.0 | –
O=C(O)c1cc(Cl)c(Cl)cc1C(=O)N1CCC2(CC1)OCCc1c2[nH]c2ccccc12 [CBK047019] | -0.0304 | – | – | – | – | – | – | –
CC(=O)Nc1cccc(-c2cn3ccnc3c(Nc3ccccc3)n2)c1 [CBK066160] | -4.6e-12 | 549.2 | IC50 indeterminate | – | – | 87.0 | 362.0 | –
COc1cccc(CNc2ccc(N3CCOCC3)cc2)c1OCc1ccccc1F [CBK074406] | 0.0527 | 758.8 | – | 3.5 | 3.16 | – | 518.0 | Hill-slope ([1]; bottom constrained to Emax of positive control CB-103): 0.00965; remaining activity at 10 µM [1]: 153%; remaining activity at 25 µM [1]: 158%; remaining activity at […] [1]: 102%; IC50 ([2]; 14p Notch assay DR, averaged when replicate measurements were available, read-out: averaged IC50s): 3.5 µM; IC50 ([2]; 14p Notch assay DR, bottom constrained to Emax of positive control RO4929097, read-out: approximated IC50): 3.5 µM; IC50 ([2]; 14p Notch assay DR, log10 value, bottom constrained to Emax of positive control RO4929097, read-out: approximated LogIC50 (converted)): 3.16 µM; activity at 10 µM [2, 6]: 56.4%; activity at 10 µM [2, 7]: 68%; activity at 10 µM [2, 8]: 68%; activity at 10 µM [2, 9]: 68%; activity at 25 µM [2, 10]: 66.7%; activity at 25 µM [2, 11]: 66.7%; activity [2, 12]: 98.6%
Cc1ccccc1CN1CCC2(CC1)OCCc1c2n(C)c2ccccc12 [CBK040366] | 4.29e-13 | 658.0 | IC50 indeterminate | – | – | 104.0 | 632.0 | approximated IC50, Notch reporter assay ([2]; 14-point dose-response, Fig. 4): Indeterminate

Second part, led by results:

Hill-slope [1, 3] | AUC APP [1] | curve fit information [1, 3] | IC50 [2, 4] [µM] | IC50 [2, 5] [µM] | Compound | Bottom (Emax) ([2]; 14p Notch assay DR) | AUC Notch [2] | also measured
3.84e-13 | – | IC50 indeterminate | – | – | CCn1ccc(CN(CCOC)C(=O)c2cc3c(Cl)cccc3[nH]2)n1 [CBK306903] | – | – | –
0.121 | 578.1 | – | 7.1 | 7.94 | CC1CCc2c(sc3ncnc(NCCCN4CCCCCC4=O)c23)C1 (stereo not drawn) [CBK305947] | 34.4 | 316.0 | remaining activity at 10 µM [1]: 118%; remaining activity at 25 µM [1]: 144%; remaining activity at […] [1]: 96.6%; activity at 10 µM [2, 6]: 41.4%; activity at 10 µM [2, 7]: 66.5%; activity at 10 µM [2, 8]: 66.5%; activity at 10 µM [2, 9]: 66.5%; activity at 25 µM [2, 10]: 46.7%; activity at 25 µM [2, 11]: 46.7%; activity [2, 12]: 107%
0.423 | – | – | – | – | COc1ccc2cc(C(=O)N3Cc4cn(CCO)nc4C3)n(C)c2c1 [CBK306707] | – | – | –
– | 720.8 | IC50 indeterminate | > 5 | > 5 | Cc1ccc2cc(C(=O)NC(C)c3cnn(C)c3C)[nH]c2c1 (stereo not drawn) [CBK246728] | – | 605.0 | IC50 ([2]; 14-point dose-response, Fig. 4, read-out: approximated IC50, Notch reporter assay): > 5 µM
